Experimental data: patent US12275731B2, “Azaindole inhibitors of wild-type and mutant forms of LRRK2” (DANA-FARBER CANCER INSTITUTE, INC., priority 2018, dated 2025)

Legend:
Experiment in all cases: KinomeScan profiling
Format in all cases: binding
[1] = molecular target: T1, MARK4 (Homo sapiens, UniProt Q96L34); conditions: MARK4, 1 μM; read-out: % control
T1 sequence (Q96L34 1-752): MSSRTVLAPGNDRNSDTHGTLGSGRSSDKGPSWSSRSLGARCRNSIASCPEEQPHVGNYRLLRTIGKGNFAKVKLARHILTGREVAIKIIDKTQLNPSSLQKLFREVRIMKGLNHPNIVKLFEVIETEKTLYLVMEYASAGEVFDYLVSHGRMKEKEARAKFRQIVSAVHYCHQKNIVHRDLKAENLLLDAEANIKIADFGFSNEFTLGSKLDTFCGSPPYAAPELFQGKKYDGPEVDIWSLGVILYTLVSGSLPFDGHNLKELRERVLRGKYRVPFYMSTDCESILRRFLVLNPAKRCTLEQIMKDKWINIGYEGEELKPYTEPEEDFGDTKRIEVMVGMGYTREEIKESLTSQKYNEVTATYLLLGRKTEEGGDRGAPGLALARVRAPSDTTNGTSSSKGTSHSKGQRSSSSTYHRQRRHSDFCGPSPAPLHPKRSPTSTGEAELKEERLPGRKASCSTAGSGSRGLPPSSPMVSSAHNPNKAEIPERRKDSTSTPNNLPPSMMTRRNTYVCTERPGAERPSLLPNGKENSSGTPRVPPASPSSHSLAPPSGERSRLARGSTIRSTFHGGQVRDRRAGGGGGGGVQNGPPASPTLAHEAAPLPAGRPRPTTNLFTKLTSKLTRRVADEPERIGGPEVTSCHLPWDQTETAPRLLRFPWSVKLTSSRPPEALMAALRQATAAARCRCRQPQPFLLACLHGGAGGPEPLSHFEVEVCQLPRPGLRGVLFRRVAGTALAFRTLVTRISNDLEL
Procedure, shortened: (§1)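 The panel spans 468 kinases, and each inventive compound was applied at 1 μM from DMSO. Lower % control means stronger binding; the activity cut-off is set at less than 35%.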

[2] = molecular target: CAMK2A (Homo sapiens, UniProt Q9UQM7); conditions: read-out: % control
Chain of CAMK2A (Q9UQM7 whole entry): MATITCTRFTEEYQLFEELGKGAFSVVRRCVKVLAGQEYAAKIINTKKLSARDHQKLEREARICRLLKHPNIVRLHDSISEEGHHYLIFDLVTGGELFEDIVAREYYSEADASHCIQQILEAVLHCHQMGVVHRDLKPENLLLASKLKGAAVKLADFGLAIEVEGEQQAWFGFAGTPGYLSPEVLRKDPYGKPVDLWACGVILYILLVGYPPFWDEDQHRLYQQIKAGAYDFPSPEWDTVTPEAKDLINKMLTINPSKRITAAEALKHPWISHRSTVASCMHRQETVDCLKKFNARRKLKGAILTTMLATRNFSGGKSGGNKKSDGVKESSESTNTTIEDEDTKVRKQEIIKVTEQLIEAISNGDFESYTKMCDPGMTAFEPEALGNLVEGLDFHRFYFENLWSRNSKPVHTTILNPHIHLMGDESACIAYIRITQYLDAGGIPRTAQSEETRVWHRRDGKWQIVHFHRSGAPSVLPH
Procedure, shortened: as §1

[3] = molecular target: T2, PIK3CA(Q546K) (Homo sapiens, UniProt P42336, Q546K); conditions: read-out: % control
T2 construct: purchased KinomeScan® (panel service)
T2 sequence (P42336 whole entry Q546K): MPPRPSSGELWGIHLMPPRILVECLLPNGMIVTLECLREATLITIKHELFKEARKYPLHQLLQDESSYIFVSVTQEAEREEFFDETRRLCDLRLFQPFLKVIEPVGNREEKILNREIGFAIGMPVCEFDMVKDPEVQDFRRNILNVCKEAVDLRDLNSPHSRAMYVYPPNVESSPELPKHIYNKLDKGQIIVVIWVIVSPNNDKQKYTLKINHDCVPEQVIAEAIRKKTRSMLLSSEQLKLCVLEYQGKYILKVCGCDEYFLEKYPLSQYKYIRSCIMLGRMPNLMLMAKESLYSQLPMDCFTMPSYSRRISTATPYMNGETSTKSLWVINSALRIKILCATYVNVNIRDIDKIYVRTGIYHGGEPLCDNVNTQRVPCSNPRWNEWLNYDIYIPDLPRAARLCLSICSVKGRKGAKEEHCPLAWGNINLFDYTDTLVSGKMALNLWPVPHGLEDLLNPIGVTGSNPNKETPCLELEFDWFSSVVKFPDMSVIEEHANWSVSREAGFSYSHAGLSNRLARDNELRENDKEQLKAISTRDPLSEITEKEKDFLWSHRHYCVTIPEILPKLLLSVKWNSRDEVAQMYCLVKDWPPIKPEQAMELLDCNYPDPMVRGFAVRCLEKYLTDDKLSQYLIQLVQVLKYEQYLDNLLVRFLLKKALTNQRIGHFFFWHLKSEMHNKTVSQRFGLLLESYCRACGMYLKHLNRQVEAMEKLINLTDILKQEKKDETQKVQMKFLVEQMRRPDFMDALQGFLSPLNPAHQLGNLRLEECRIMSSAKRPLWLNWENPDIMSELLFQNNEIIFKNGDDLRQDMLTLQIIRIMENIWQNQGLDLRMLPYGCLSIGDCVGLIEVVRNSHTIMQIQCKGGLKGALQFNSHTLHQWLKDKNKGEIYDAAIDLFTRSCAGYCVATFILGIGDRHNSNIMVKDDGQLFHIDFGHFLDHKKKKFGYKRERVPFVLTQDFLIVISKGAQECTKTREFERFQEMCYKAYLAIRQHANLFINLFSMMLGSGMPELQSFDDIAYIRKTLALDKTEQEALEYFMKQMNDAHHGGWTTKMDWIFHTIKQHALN
Procedure, shortened: as §1

[4] = molecular target: FES (Homo sapiens, UniProt P07332); conditions: read-out: % control
Chain of FES (P07332 whole entry): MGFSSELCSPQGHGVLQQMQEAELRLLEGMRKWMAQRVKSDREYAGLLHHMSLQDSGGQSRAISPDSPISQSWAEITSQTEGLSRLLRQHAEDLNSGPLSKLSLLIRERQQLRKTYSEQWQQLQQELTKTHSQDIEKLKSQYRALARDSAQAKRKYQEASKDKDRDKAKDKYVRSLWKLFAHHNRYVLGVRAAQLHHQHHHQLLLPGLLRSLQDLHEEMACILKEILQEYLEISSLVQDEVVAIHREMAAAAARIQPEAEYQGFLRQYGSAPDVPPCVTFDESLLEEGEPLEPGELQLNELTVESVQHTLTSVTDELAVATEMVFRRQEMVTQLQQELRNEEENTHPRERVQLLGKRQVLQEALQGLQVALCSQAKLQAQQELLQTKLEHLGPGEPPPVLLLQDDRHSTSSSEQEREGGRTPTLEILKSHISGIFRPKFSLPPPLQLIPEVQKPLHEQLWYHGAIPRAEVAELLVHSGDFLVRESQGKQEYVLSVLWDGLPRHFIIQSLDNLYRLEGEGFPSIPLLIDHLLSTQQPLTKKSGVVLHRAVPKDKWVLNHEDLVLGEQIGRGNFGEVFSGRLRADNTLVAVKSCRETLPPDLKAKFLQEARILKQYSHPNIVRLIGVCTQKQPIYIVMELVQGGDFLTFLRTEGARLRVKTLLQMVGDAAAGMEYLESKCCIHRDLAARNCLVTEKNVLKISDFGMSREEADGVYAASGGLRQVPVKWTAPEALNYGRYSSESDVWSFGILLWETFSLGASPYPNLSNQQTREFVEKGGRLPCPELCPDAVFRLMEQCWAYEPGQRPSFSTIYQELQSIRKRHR
Procedure, shortened: as §1

[5] = molecular target: WEE1 (Homo sapiens, UniProt P30291); conditions: WEE1, 1 μM; read-out: % control
Chain of WEE1 (P30291 whole entry): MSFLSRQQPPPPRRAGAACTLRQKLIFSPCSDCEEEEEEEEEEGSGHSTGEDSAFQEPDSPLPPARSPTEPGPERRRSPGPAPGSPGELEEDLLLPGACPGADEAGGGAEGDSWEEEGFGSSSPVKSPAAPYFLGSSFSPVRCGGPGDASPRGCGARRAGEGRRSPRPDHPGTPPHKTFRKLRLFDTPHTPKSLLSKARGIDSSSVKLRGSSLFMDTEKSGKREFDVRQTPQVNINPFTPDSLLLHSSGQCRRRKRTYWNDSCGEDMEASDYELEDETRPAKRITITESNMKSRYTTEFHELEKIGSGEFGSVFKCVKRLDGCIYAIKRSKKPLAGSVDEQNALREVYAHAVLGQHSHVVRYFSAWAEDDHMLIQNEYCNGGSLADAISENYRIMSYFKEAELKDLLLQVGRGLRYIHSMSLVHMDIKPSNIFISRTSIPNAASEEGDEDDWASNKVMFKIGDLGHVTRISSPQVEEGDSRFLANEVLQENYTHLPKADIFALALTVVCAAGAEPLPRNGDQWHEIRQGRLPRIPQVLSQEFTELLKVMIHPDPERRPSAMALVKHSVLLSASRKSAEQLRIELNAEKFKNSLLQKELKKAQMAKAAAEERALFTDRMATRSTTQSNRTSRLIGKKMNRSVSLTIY
Procedure, shortened: as §1

[6] = molecular target: T3, CAMK4 (Homo sapiens, UniProt Q16566); conditions: CAMK4, 1 μM; read-out: % control
T3 sequence (Q16566 1-473): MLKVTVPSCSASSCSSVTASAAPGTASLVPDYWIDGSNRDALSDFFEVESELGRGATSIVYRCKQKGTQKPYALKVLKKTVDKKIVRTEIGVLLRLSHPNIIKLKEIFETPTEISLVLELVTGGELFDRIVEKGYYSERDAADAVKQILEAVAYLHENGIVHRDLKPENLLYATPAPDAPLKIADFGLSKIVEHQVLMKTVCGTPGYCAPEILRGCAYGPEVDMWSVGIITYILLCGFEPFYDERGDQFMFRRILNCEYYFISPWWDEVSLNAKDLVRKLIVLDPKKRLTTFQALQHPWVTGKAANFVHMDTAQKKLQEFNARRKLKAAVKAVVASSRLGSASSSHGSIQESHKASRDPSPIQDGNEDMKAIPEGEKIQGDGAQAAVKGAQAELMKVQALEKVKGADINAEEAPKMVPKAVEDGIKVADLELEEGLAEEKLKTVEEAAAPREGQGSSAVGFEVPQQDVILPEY
Procedure, shortened: as §1

Row | SMILES | remaining binding at 1 µM [1] [%] | remaining binding at 1 µM [2] [%] | remaining binding at 1 µM [3] [%] | remaining binding at 1 µM [4] [%] | remaining binding at 1 µM [5] [%] | remaining binding at 1 µM [6] [%]
1 | CNc1c(-c2cnn([C@H]3CCN(C(C)=O)C[C@@H]3F)c2)cnc2[nH]cc(Cl)c12 [Compound 77, 1-((3S,4S)-4-(4-(3-chloro-4-(methylamino)-1H-pyrrolo[2,3-b]pyridin-5-yl)-1H-pyrazol-1-yl)-3-fluoropiperidin-1-yl)ethan-1-one] | 36 | 100 | 100 | 95 | 97 | 100
2 | O=C(c1ccc(-c2cnc3[nH]cc(Cl)c3c2NC2CCCC2)cc1)N1CCC(N2CCOCC2)CC1 [Compound 101, (4-(3-chloro-4-(cyclopentylamino)-1H-pyrrolo[2,3-b]pyridin-5-yl)phenyl)(4-morpholinopiperidin-1-yl)methanone] | 82 | 92 | 93 | 72 | 100 | 87
3 | CNc1c(-c2ccc(C(=O)N3CCC(N4CCOCC4)CC3)cc2)cnc2[nH]cc(Cl)c12 [Compound 96, (4-(3-chloro-4-(methylamino)-1H-pyrrolo[2,3-b]pyridin-5-yl)phenyl)(4-morpholinopiperidin-1-yl)methanone] | 38 | 96 | 100 | 95 | 88 | 100
